In article PMC13578988, “No ancillary proteins are essential for the functional heterologous expression of the homomeric α6 nicotinic acetylcholine receptor from the brown castor tick Ixodes ricinus” (Current Research in Parasitology & Vector-borne Diseases, 2026) one finds EC50 data, which are given here for five compounds.

The term pEC50 denotes the negative decadic logarithm of the EC50, by convention in mol/L.

SMILES strings stand for the structures. pEC50: −log10 of the molar value.

The subject of one assay is Asu-ACR-16. To be noted: cited from earlier work.
Assay [1] relates to T1, Iricα6B (homomeric α6 nicotinic acetylcholine receptor, splice variant B).
T1 construct: full-length Iricα6B, 517 amino acids (exon 3b only), homopentamer
The assay is described as follows: two-electrode voltage clamp in Xenopus laevis oocytes expressing Iricα6B (agonist dose-response). Format: cell-based, Ixodes ricinus. Background: In two-electrode clamp one electrode senses voltage and the other passes current.

For `CN1CCC[C@H]1c1cccnc1` [nicotine], the negative-log EC50 (pEC50) with Asu-ACR-16 is 5.35. As for `CC(=O)OCC[N+](C)(C)C` [acetylcholine], in assay [1], the pEC50 was 5.70. The same measure, in the same setting: under `O=[N+]([O-])NC1=NCCN1Cc1ccc(Cl)nc1` [imidacloprid] stands 7.94; under `CN/C(=N/CC1CCOC1)N[N+](=O)[O-]` (centres unmarked) [dinotefuran], 9.38. Take `CC(=O)OCC[N+](C)(C)C` [ACh, acetylcholine]: the pEC50 in the assay with Asu-ACR-16 is 5.23.
